Legend:
Assay type in all cases: binding
[1] = target: T1, T-cell-originated protein kinase (TOPK) (Homo sapiens, UniProt Q96KB5); assay: microscale thermophoresis with labeled recombinant TOPK; also in vitro kinase assay (histone H3 phosphorylation); conditions: read-out: Dissociation constant with TOPK / Kd^b
T1 construct: gene PBK
T1 sequence (Q96KB5 1-322): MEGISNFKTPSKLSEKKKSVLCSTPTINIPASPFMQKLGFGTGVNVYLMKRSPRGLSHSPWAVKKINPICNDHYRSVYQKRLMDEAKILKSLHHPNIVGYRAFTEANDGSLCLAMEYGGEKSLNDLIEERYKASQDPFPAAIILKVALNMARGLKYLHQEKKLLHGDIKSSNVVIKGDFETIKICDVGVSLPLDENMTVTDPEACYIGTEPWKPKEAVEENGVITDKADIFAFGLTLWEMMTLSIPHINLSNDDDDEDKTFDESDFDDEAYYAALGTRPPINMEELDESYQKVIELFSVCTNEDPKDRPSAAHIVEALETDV

[2] = target: T1, T-cell-originated protein kinase (TOPK); assay: biochemical
[3] = target: T1, T-cell-originated protein kinase (TOPK); assay: microscale thermophoresis with labeled recombinant TOPK (reference inhibitor); conditions: read-out: Dissociation constant with TOPK / Kd^b
[4] = read-out: Dissociation constant with TOPK / Kd^b

## COc1ccnc(C[S+]([O-])c2nc3ccc(OC(F)F)cc3[nH]2)c1OC (centres unmarked) [Pantoprazole]
[1]
  Kd: 24.2 ± 2.3 µM

## NC(CO)C(=O)NNCc1ccc(O)c(O)c1O (centres unmarked) [Benserazide]
[2]; [4]
  Kd: 477 ± 19.9 µM

## CC(=O)Nc1ccc(OCC(O)CNC(C)C)cc1 (centres unmarked) [Practolol]
[2]; [4]
  Kd: 226 ± 29.5 µM

## O=C(O)c1cc(/N=N/c2ccc(S(=O)(=O)Nc3ccccn3)cc2)ccc1O [Sulfasalazine]
[2]
  Kd: 339 ± 7.7 µM

## N#Cc1c2nc3ccccc3nc2n2ccc(NC(=O)c3cccs3)cc12 [HI-TOPK-032]
[3]
  Kd: 327 ± 62.7 µM
